Laboratory results from patent US20230165821A1, “ELAFIBRANOR FOR THE TREATMENT OF PRIMARY SCLEROSING CHOLANGITIS” (Genfit, priority 2020, published 2023).
Entries after “also recorded” stand apart in the source; their conditions may differ.

Tests used:
Format in all cases: in vivo, human
healthy male volunteers = test: Phase I clinical trial, tolerability and safety
Procedure: (§1) This clinical trial has been performed to assess the tolerability, safety and reduction of different parameters, including alkaline phosphatase of once-a-day administrations of oral doses of elafibranor (ELA) in […]. This was a phase I, single-center, double-blind, placebo-controlled, randomised, ascending multiple-dose study in healthy male volunteers. Doses of 40 mg or 60 mg once-a-day during 14 days were tested.
(§2) Thirty 19-40 years old Caucasian male volunteers were included: 9 for each treatment group and 12 for the placebo group.
(§3) The compound used was ELA, supplied in hard gelatin capsules dosed at 10 mg. Dose per administration was of 40 mg or 60 mg. Administration was repeated once-a-day, with an oral administration around 8 a.m. with 200 mL tap water, in sitting position, in fasting conditions, from day 1 to day 14. Matching placebo was presented as identical capsules.

total bilirubin level = test: Phase I clinical trial, assessment of bilirubin level; conditions: for Measure of total bilirubin Day 15 change from the baseline: fasting, n=9
Text: (§4) Patients with clinical PSC have elevated alkaline phosphatase (ALP) and bilirubin levels. […] Some studies underline also elevated levels of bilirubin (Denau, M.R. et al., The Natural History of Primary Sclerosing Cholangitis in 781 Children: A Multicenter, International Collaboration. Hepatology (2017), Vol. 66, N° 2 pp518-527).
as §1, §2, §3

[1] = test system: alkaline phosphatase (ALP) level; test: Phase I clinical trial, assessment of ALP level; conditions: for Measure of ALP Day 15 change from the baseline: fasting, n=9, baseline day 1
Text: as §4, §1, §2, §3
Alkaline phosphatase level was assessed at baseline (day 1) and day 15.

[2] = ELA 40 mg/day oral once-a-day for 14 days
[3] = ELA 60 mg/day oral once-a-day for 14 days

CSc1ccc(C(=O)C=Cc2cc(C)c(OC(C)(C)C(=O)O)c(C)c2)cc1 [ELA, 2-(2,6-dimethyl-4-{3-[4-(methylsulfanyl)phenyl]-3-oxopropen-1-yl}phenoxy)-2-methylpropanoic acid]
Serious adverse events (healthy male volunteers; 40 mg or 60 mg once-a-day, 14 days, oral): No serious adverse events were reported | Clinical tolerance (healthy male volunteers; repeated administration at either dose (40 mg or 60 mg), healthy volunteers): good clinical tolerance | Measure of total bilirubin Day 15 change from the baseline (total bilirubin level; [2]): -2.07 | Measure of total bilirubin Day 15 change from the baseline (total bilirubin level; [3]): -2.46 | Total bilirubin levels compared to placebo group (total bilirubin level; both doses (40 mg and 60 mg), once-a-day, 14 days): improved total bilirubin levels compared to placebo group | Measure of ALP Day 15 change from the baseline [1, 2]: -8.3 | Measure of ALP Day 15 change from the baseline [1, 3]: -20.7 | Alkaline phosphatase levels compared to placebo group ([1]; both doses (40 mg and 60 mg), once-a-day, 14 days, listed as elafibranor): improved alkaline phosphatase levels compared to placebo group; also recorded: decreased mean ALP compared with placebo
